Source: patent US9206412B2, “Thioxothiazolidine inhibitors” (Colorado State University Research Foundation, priority 2012, dated 2015)
Where “and” joins values, the source holds several entries; their conditions need not be identical. Equal values may be shown once. Read-outs that look alike come from different tables or passages of the source.

Assays:
[1] = target: T1, dengue virus capping enzyme (Dengue virus type 2, UniProt P29990); assay: biochemical; format: binding, dengue virus type 2 (strain 16681); settings: read-out: FP_DEN_Ki_AVG_DEN_M
T1 sequence (P29990 2492-2758): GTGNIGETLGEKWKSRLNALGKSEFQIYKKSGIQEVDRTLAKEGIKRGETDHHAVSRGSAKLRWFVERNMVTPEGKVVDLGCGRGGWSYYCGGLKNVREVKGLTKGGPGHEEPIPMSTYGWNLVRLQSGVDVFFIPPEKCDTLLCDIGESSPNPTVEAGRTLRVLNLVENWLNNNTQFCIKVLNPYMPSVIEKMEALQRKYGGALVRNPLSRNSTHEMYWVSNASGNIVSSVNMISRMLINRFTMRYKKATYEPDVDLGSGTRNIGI

[2] = target: yellow fever virus capping enzyme (Yellow fever virus, UniProt P03314); assay: biochemical; format: binding, yellow fever virus (strain 17D); settings: read-out: FP_YF_KI_AVG_YF_M
BHK-pD2hRucPac cells = assay: Cell viability (CellTiter-Glo) in replicon assay; settings: read-out: Replicon Assay_CC50_M; Table 2-1
[3] = tested on: dengue type 2 virus subgenomic replicon (BHK-pD2hRucPac); assay: Antiviral (replicon) assay, Renilla luciferase; format: cell-based
[4] = target: T1, dengue virus capping enzyme; format: binding
[5] = Cell viability (CellTiter-Glo) in replicon assay; settings: hamster, BHK-pD2hRucPac cells (dengue replicon cells), Replicon CC50, text
[6] = Table 2-1, read-out: Replicon Assay_EC50_M

yellow fever virus capping enzyme, sequence (P03314 2507-2774 limits assumed): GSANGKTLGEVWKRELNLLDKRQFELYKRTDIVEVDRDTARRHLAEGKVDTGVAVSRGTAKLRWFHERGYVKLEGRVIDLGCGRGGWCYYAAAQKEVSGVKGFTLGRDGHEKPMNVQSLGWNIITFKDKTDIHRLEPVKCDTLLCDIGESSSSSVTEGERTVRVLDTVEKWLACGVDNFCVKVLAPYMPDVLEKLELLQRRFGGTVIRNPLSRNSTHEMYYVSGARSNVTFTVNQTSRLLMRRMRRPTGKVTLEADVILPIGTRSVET

SMILES	Ki [1] [µM]	Ki [2] [µM]	CC50 (BHK-pD2hRucPac cells)	EC50 [3, 6]	HTS Activity [4]	CC50 at 72 h [5] [µM]	EC50 ([3]; Dengue virus, 72 h, read-out: Replicon EC50, 72 hours) [µM]
COc1ccccc1C=C1SC(=S)N(C(Cc2ccccc2)C(=O)O)C1=O (racemic) [BG101]	9	8	46 µM	42 µM			
O=C(O)C(Cc1ccccc1)N1C(=O)C(=Cc2ccccc2Cl)SC1=S (racemic) [BG135]	4	5	44 µM	39 µM			
CC(C)(C)c1ccc(CC2SC(=S)N(CCC(=O)O)C2=O)cc1 (racemic) [BG296]	10		105 µM	167 µM			
O=C(O)CN1C(=O)/C(=C\c2ccc(-c3ccc(Cl)cc3Cl)o2)SC1=S [2044-5240]					M (key: Weak (W)=50%-75% reduction in FP signal; Moderate (M)=76%-90% reduction; Strong (S)=>90% reduction)		
O=C(CN1C(=O)/C(=C/c2ccccc2Cl)SC1=S)Nc1ccccc1C(=O)O [BG100]	3	5	49 µM	37 µM			
C=CCOc1ccc(Cl)cc1/C=C1\SC(=S)NC1=O [BG114]	2	6	27 µM	23 µM			
O=C(CN1C(=O)C(=Cc2ccccc2Cl)SC1=S)Nc1ccc(C(=O)O)cc1 [BG119]	4	5	58 µM	42 µM			
O=C(CCN1C(=O)C(=Cc2ccc(Cl)cc2)SC1=S)Nc1ccccc1C(=O)O [BG120]	2	2	31 µM	23 µM			
O=C(CCN1C(=O)C(=Cc2ccc(Cl)cc2)SC1=S)Nc1cccc(C(=O)O)c1 [BG121]	3	5	39 µM	33 µM			
O=C(CCN1C(=O)C(=Cc2ccc(Cl)cc2)SC1=S)Nc1ccc(C(=O)O)cc1 [BG122]	3	5	58 µM	41 µM			
O=C(CN1C(=O)C(=Cc2ccccc2Cl)SC1=S)Nc1cccc(C(=O)O)c1 [BG123]	4	5	103 µM	75 µM			
O=C(CCCN1C(=O)/C(=C/c2ccc(F)cc2)SC1=S)Nc1cccc(C(=O)O)c1 [BG124]	14	18	56 µM	80 µM			
CCOc1ccc(N2C(=O)C(=Cc3ccccc3C(=O)O)SC2=S)cc1 [BG126]	17	19	51 µM	52 µM			
O=C1NC(=S)SC1=Cc1ccccc1OS(=O)(=O)c1ccc([N+](=O)[O-])cc1 [BG127]	5	6	40 µM	109 µM			
Cc1cccc(N2C(=O)/C(=C/c3ccc(C(=O)O)cc3)SC2=S)c1C [BG128]	11	13	42 µM	45 µM			
O=C(O)c1ccccc1/C=C1\SC(=S)N(c2cccc(C(F)(F)F)c2)C1=O [BG129]	11	19	47 µM				
Cc1ccc(N2C(=O)/C(=C/c3ccccc3C(=O)O)SC2=S)c(C)c1 [BG130]	8	15	50 µM	61 µM			
O=C(CN1C(=O)/C(=C/c2ccccc2F)SC1=S)Nc1cccc(C(=O)O)c1 [BG131]	6	12	71 µM	54 µM			
O=C(CN1C(=O)/C(=C/c2ccccc2F)SC1=S)Nc1ccccc1C(=O)O [BG132]	3	3	50 µM	114 µM			
CC(C(=O)O)N1C(=O)C(=Cc2ccc(Cl)cc2Cl)SC1=S (centres unmarked) [BG133]	7	14	77 µM	126 µM			
CC(C)C(C(=O)O)N1C(=O)/C(=C/c2ccccc2Cl)SC1=S (centres unmarked) [BG134]	15	15	66 µM	61 µM			
Cc1cccc(/C=C2\SC(=S)N(CN3CCCCC3)C2=O)c1 [BG136]	16	27	49 µM	41 µM			
CC(=C1SC(=S)NC1=O)c1ccc(C)cc1 [BG137]	19	25	67 µM	55 µM			
O=C(O)C(Cc1ccccc1)N1C(=O)C(=CC=Cc2ccccc2)SC1=S (centres unmarked) [BG138]	3	4	33 µM	32 µM			
O=C(O)CCN1C(=O)C(=Cc2ccc(-c3ccccc3[N+](=O)[O-])o2)SC1=S [BG139]	5	7	56 µM	51 µM			
COc1ccc(N2C(=O)/C(=C/c3cc([N+](=O)[O-])cc(OC)c3O)SC2=S)cc1 [BG140]		2	23 µM	13 µM			

SMILES	Ki [1] [µM]	Ki [2] [µM]	CC50 (BHK-pD2hRucPac cells)	EC50 [3, 6]	HTS Activity [4]	CC50 at 72 h [5] [µM]	EC50 ([3]; Dengue virus, 72 h, read-out: Replicon EC50, 72 hours) [µM]
COc1cc(C=C2SC(=S)NC2=O)ccc1OS(=O)(=O)c1ccccc1[N+](=O)[O-] [BG141]		2	27 µM	24 µM			
O=C(CN1C(=O)S/C(=C\c2ccccc2F)C1=O)Nc1ccccc1C(=O)O [BG142]	23	51	137 µM	102 µM			
O=C1NC(=O)C(=Cc2ccc(Br)cc2)S1 [BG143]	20	24	60 µM	50 µM			
COc1cc(/C=C2\SC(=O)N(Cc3ccc(F)cc3)C2=O)c(Br)cc1OCC(=O)O [BG163]	5	9	38 µM	32 µM			
CC(C)N1C(=O)SC(=Cc2ccccc2OCc2ccc(C(=O)O)cc2)C1=O [BG166]	7	14	33 µM	28 µM			
COc1ccc2nc(N3CCCCC3)c(C=C3SC(=S)NC3=O)cc2c1 [BG168]	2	2	12 µM	13 µM			
CCOc1cc(/C=C2\SC(=S)NC2=O)ccc1OS(=O)(=O)c1ccccc1[N+](=O)[O-] [BG169]	2	2	29 µM	26 µM			
Cc1cc(C)cc(-n2c(C)cc(/C=C3\SC(=O)NC3=O)c2C)c1 [BG172]	11	14	26 µM	20 µM			
CN1C(=O)S/C(=C\c2ccc(-c3ccc(C(=O)O)c(Cl)c3)o2)C1=O [BG175]	13	17	82 µM	78 µM			
O=C(O)CCN1C(=O)/C(=C/c2ccc(-c3ccc(Cl)cc3Cl)o2)SC1=S [BG177]		1	30 µM and 31 µM	30 µM and 26 µM			
CC(C)(C)c1cc(C=C2SC(=S)NC2=O)cc(C(C)(C)C)c1O [BG179]	2	1	20 µM	15 µM			
CC(C)c1ccc(/C=C2\SC(=S)N(CC(=O)O)C2=O)cc1 [BG182]	18	17	93 µM	80 µM			
CC(C)(C)c1ccc(/C=C2\SC(=S)N(CCC(=O)O)C2=O)cc1 [BG184]			61 µM	46 µM			
O=C(O)CCN1C(=O)/C(=C/c2ccc(-c3cccc(Cl)c3)o2)SC1=S [BG188]			51 µM	51 µM			
CCc1ccc(C=C2SC(=S)N(CCC(=O)Nc3ccccc3C(=O)O)C2=O)cc1 [BG274]			60 µM	63 µM			
O=C(CCN1C(=O)/C(=C/c2ccccc2Cl)SC1=S)Nc1ccccc1C(=O)O [BG289]			79 µM	92 µM			
O=C(CCN1C(=O)/C(=C/c2cccc(Br)c2)SC1=S)Nc1ccccc1C(=O)O [BG291]			68 µM	75 µM			
CC(C)(C)c1ccc(C=C2SC(=S)N(CCC(=O)NS(C)(=O)=O)C2=O)cc1 [BG297]	3		86 µM	78 µM			
COc1c(I)cc(I)cc1/C=C1\SC(=S)N(CC(=O)O)C1=O [BG308]	2	4	276 µM	97 µM			
O=C1NC(=S)SC1=Cc1cccc(Cl)c1Cl [BG333]	7	12	11 µM	9 µM			
COc1c(I)cc(I)cc1/C=C1\SC(=S)N(CC(=O)O)C1=O [BG-5]					S (key: Weak (W)=50%-75% reduction in FP signal; Moderate (M)=76%-90% reduction; Strong (S)=>90% reduction)		
O=C(O)CN1C(=O)/C(=C/c2ccc(Oc3ccccc3)cc2)SC1=S [BG-115]					M (key: Weak (W)=50%-75% reduction in FP signal; Moderate (M)=76%-90% reduction; Strong (S)=>90% reduction)		
O=C(O)CN1C(=O)/C(=C/c2ccc(OCc3ccccc3)cc2)SC1=S [BG-170]					W (key: Weak (W)=50%-75% reduction in FP signal; Moderate (M)=76%-90% reduction; Strong (S)=>90% reduction)		
COc1ccc(OC)c(/C=C2\SC(=S)N(CC(=O)O)C2=O)c1 [BG-309]	≥ 100	≥ 100	100 µM				
NC(=O)c1ncn([C@@H]2O[C@H](CO)[C@@H](O)[C@H]2O)n1 [Ribavirin, reference compound]						49	12
